Test results: patent US6995188B2 (priority 2002, dated 2006)
Several values for one entry are separate records, joined by “and”; a condition that tells them apart may be missing. Identical values can stand only once.

Tests used:
[1] = SGLU1 multiple dose toxicology in vivo; set-up: species or system mice
Protocol: Further studies were performed to determine the dose-limiting toxicity associated with the administration of repeated doses in groups of mice. Tables 11–16 below describe the results of the multiple-dose toxicology studies for MER-1 and Tables 17–21 describe results of the multiple-dose toxicology of SGLU-1.
The results of the SGLU-1 Multiple Dose I.V. are summarized as follows: Five mice/sex were administered 5 daily intravenous injections of SGLU via the tail vein at doses of 50, 100, 150, 200, 250, 300, and 350 mg/kg/day. All surviving mice were held for 28 days, sacrificed, and designated tissues collected, formalin fixed, and examined.

NB4 cells = type: cell-based, human
[2] = tested on: panel of 60 tumor cell lines; type: cell-based, human
[3] = 5 daily IV injections, 50–350 mg/kg/day

Question: Which “Clinical Signs” value ([1]; 300 mg/kg/day IV daily x5) does the source give for C[As](C)SC[C@H](NC(=O)CC[C@H](N)C(=O)O)C(=O)NCC(=O)O [SGLU1, S-(dimethylarsino) glutathione] here?
Answer: Slight decr. activity and 1 F tail necr.: amputate

Question: And the “Kidney: Congestion, incidence” value ([1]; 300 mg/kg/day, F)?
Answer: 1/5

Question: And the “Liver: Hepatocyte hypertrophy: Centrilobular (compatible with SER), incidence” value (“Liver … (compatible with SER), incidence” below) ([1]; 300 mg/kg/day, F)?
Answer: 2/5

Question: What about the “Liver: Hepatocyte hypertrophy: Panlobular w/eosinophilia, incidence” value ([1]; 300 mg/kg/day, F) of the same compound?
Answer: 1/5

Question: And the “Liver: Pyogranuloma, focal, incidence” value ([1]; 300 mg/kg/day, F)?
Answer: 1/5

Question: And the “Lung: Atelectasis, incidence” value ([1]; 300 mg/kg/day, F)?
Answer: 1/5

Question: And the “Lung: Congestion, incidence” value ([1]; 300 mg/kg/day, F)?
Answer: 3/5

Question: What about the “Lung: Vasculitis, incidence” value ([1]; 300 mg/kg/day, F) of the same compound?
Answer: 1/5

Question: And the “Number of animals/dose that tolerated 1 dose” value ([1]; 300 mg/kg/day, F)?
Answer: 1/5

Question: What about the “Number of animals/dose that tolerated 2 doses” value ([1]; 300 mg/kg/day, F) of the same compound?
Answer: 2/5

Question: What about the “Number of animals/dose that tolerated 5 doses” value ([1]; 300 mg/kg/day, F) of the same compound?
Answer: 2/5

Question: And the “Tail: Acute necrosis with vasculitis, thrombosis, and hemorrhage, incidence” value (from here on “Tail: Acute necrosis with vasculitis”) ([1]; 300 mg/kg/day, F)?
Answer: 1/5

Question: What about the “Body Weights Avg.” value ([1]; 300 mg/kg/day, Female) of the same compound?
Answer: 24 grams

Question: What about the “Epididymus: Oligospermia, incidence” value ([1]; 300 mg/kg/day, M) of the same compound?
Answer: 2/5

Question: And the “Heart: Medial hyprtrophy, coronary artery, incidence” value ([1]; 300 mg/kg/day, M)?
Answer: 1/5

Question: What about the “Liver … (compatible with SER), incidence” value ([1]; 300 mg/kg/day, M) of the same compound?
Answer: 4/5

Question: And the “Liver: Pyogranuloma, focal, incidence” value ([1]; 300 mg/kg/day, M)?
Answer: 2/5

Question: And the “Lung: Congestion, incidence” value ([1]; 300 mg/kg/day, M)?
Answer: 1/5

Question: And the “Number of animals/dose that tolerated 1 dose” value ([1]; 300 mg/kg/day, M)?
Answer: 3/5

Question: What about the “Number of animals/dose that tolerated 5 doses” value ([1]; 300 mg/kg/day, M) of the same compound?
Answer: 2/5

Question: What about the “Tail: Acute necrosis with vasculitis” value ([1]; 300 mg/kg/day, M) of the same compound?
Answer: 1/5

Question: What about the “Tail: Ulcerative dermatitis, incidence” value ([1]; 300 mg/kg/day, M) of the same compound?
Answer: 1/5

Question: And the “Testes: Seminiferous tubular degeneration, incidence” value ([1]; 300 mg/kg/day, M)?
Answer: 2/5

Question: What about the “Body Weights Avg.” value ([1]; 300 mg/kg/day, Male) of the same compound?
Answer: 23 grams

Question: And the “Clinical Signs” value ([1]; 350 mg/kg/day IV daily x5)?
Answer: Moderate decr. activity and 2 M tail necr.: amputate

Question: And the “Kidney: Murine progressive glomerulonephropathy, incidence” value ([1]; 350 mg/kg/day, F)?
Answer: 1/5

Question: And the “Liver: Hepatocyte hypertrophy: Periportal w/vacuolation, incidence” value ([1]; 350 mg/kg/day, F)?
Answer: 2/5

Question: What about the “Liver: Inflammation, portal, incidence” value ([1]; 350 mg/kg/day, F) of the same compound?
Answer: 1/5

Question: What about the “Lung: Congestion, incidence” value ([1]; 350 mg/kg/day, F) of the same compound?
Answer: 2/5

Question: And the “Lung: Fibrin Thrombi, incidence” value ([1]; 350 mg/kg/day, F)?
Answer: 1/5

Question: And the “Lung: Vasculitis, incidence” value ([1]; 350 mg/kg/day, F)?
Answer: 1/5

Question: And the “Mandibular L. N.: Apoptosis, lymphocyte, incidence” value ([1]; 350 mg/kg/day, F)?
Answer: 1/5

Question: And the “Number of animals/dose that tolerated 1 dose” value ([1]; 350 mg/kg/day, F)?
Answer: 4/5

Question: What about the “Number of animals/dose that tolerated 2 doses” value ([1]; 350 mg/kg/day, F) of the same compound?
Answer: 1/5

Question: What about the “Spleen: Congestion, incidence” value ([1]; 350 mg/kg/day, F) of the same compound?
Answer: 5/5

Question: And the “Thymus: Apoptosis, increased, incidence” value ([1]; 350 mg/kg/day, F)?
Answer: 5/5

Question: And the “Body Weights Avg.” value ([1]; 350 mg/kg/day, Female)?
Answer: 24 grams

Question: And the “Bone Marrow: Myeloid hyperplasia, incidence” value ([1]; 350 mg/kg/day, M)?
Answer: 1/5

Question: And the “Epididymus: Oligospermia, incidence” value ([1]; 350 mg/kg/day, M)?
Answer: 5/5

Question: What about the “Kidney: Congestion, incidence” value ([1]; 350 mg/kg/day, M) of the same compound?
Answer: 1/5

Question: And the “Kidney: Inflammation, focal, incidence” value ([1]; 350 mg/kg/day, M)?
Answer: 1/5

Question: What about the “Liver … (compatible with SER), incidence” value ([1]; 350 mg/kg/day, M) of the same compound?
Answer: 1/5

Question: And the “Liver: Increased mitoses, incidence” value ([1]; 350 mg/kg/day, M)?
Answer: 1/5

Question: What about the “Liver: Pyogranuloma, focal, incidence” value ([1]; 350 mg/kg/day, M) of the same compound?
Answer: 2/5

Question: And the “Lung: Fibrin Thrombi, incidence” value ([1]; 350 mg/kg/day, M)?
Answer: 1/5

Question: What about the “Lung: Hemorrhage, focal, incidence” value ([1]; 350 mg/kg/day, M) of the same compound?
Answer: 2/5

Question: What about the “Number of animals/dose that tolerated 1 dose” value ([1]; 350 mg/kg/day, M) of the same compound?
Answer: 3/5

Question: And the “Number of animals/dose that tolerated 5 doses” value ([1]; 350 mg/kg/day, M)?
Answer: 2/5

Question: What about the “Spleen: Congestion, incidence” value ([1]; 350 mg/kg/day, M) of the same compound?
Answer: 2/5

Question: What about the “Spleen: Extramedullary hematopoiesis, increased, incidence” value ([1]; 350 mg/kg/day, M) of the same compound?
Answer: 1/5

Question: And the “Tail: Acute necrosis with vasculitis” value ([1]; 350 mg/kg/day, M)?
Answer: 1/5

Question: And the “Testes: Seminiferous tubular degeneration, incidence” value ([1]; 350 mg/kg/day, M)?
Answer: 5/5

Question: What about the “Thymus: Apoptosis, increased, incidence” value ([1]; 350 mg/kg/day, M) of the same compound?
Answer: 2/5

Question: And the “Body Weights Avg.” value ([1]; 350 mg/kg/day, Male)?
Answer: 20 grams

Question: And the “deaths (summary)” value [1, 3]?
Answer: Deaths occurred at 250, 300, and 350 mg/kg/day with female mice being more susceptible than males

Question: And the “microscopic observations (summary)” value [1, 3]?
Answer: compound-related lesions in lung, liver, thymus, and testes

Question: What about the “Deaths, number of animals/dose” value ([1]; 5 daily IV injections, F, 50 mg/kg/day) of the same compound?
Answer: 0/5

Question: And the “Deaths, number of animals/dose” value ([1]; 5 daily IV injections, F, 150 mg/kg/day)?
Answer: 0/5

Question: And the “Deaths, number of animals/dose” value ([1]; 5 daily IV injections, F, 200 mg/kg/day)?
Answer: 0/5

Question: And the “Deaths, number of animals/dose” value ([1]; 5 daily IV injections, F, 250 mg/kg/day)?
Answer: 1/5

Question: What about the “Deaths, number of animals/dose” value ([1]; 5 daily IV injections, F, 300 mg/kg/day) of the same compound?
Answer: 3/5

Question: What about the “Deaths, number of animals/dose” value ([1]; 5 daily IV injections, F, 350 mg/kg/day) of the same compound?
Answer: 5/5

Question: And the “Deaths, number of animals/dose” value ([1]; 5 daily IV injections, M, 50 mg/kg/day)?
Answer: 0/5

Question: And the “Deaths, number of animals/dose” value ([1]; 5 daily IV injections, M, 100 mg/kg/day)?
Answer: 0/5

Question: What about the “Deaths, number of animals/dose” value ([1]; 5 daily IV injections, M, 150 mg/kg/day) of the same compound?
Answer: 0/5

Question: What about the “Deaths, number of animals/dose” value ([1]; 5 daily IV injections, M, 200 mg/kg/day) of the same compound?
Answer: 0/5

Question: And the “Deaths, number of animals/dose” value ([1]; 5 daily IV injections, M, 250 mg/kg/day)?
Answer: 0/5

Question: And the “Deaths, number of animals/dose” value ([1]; 5 daily IV injections, M, 300 mg/kg/day)?
Answer: 1/5

Question: What about the “Deaths, number of animals/dose” value ([1]; 5 daily IV injections, M, 350 mg/kg/day) of the same compound?
Answer: 3/5

Question: And the no-observable-effect level ([1]; 5 daily IV injections, female mice)?
Answer: 150 mg/kg

Question: And the “centrilobular hypertrophy of hepatocytes, incidence” value ([1]; 5 daily IV injections, female mice, 200 mg/kg/day)?
Answer: 1/5

Question: What about the “no-observable-effect level (NOEL)” value ([1]; 5 daily IV injections, male mice) of the same compound?
Answer: 100 mg/kg/day

Question: What about the “testicular seminiferous tubular degeneration, incidence” value ([1]; 5 daily IV injections, males, 150 mg/kg/day) of the same compound?
Answer: 1/5

Question: What about the “induction of maturation (CD11b expression)” value (NB4 cells) of the same compound?
Answer: do not induce maturation

Question: And the “anticancer activity, NIH panel” value [2]?
Answer: showed evidence of activity at low concentrations against a variety of tumor cell lines
